Reference: US6831199B1, “Pyrimidine compounds and derivatives thereof” (G. D. Searle & Co., priority 1995, dated 2004)
Structures can show the parent of a compound that is named as a salt.

How the values were obtained:
[1] = target: T1, Human vitronectin receptor (αvβ3) (Homo sapiens, UniProt P05106+P06756); assay: Vitronectin adhesion assay (solid phase receptor assay, competition with biotinylated vitronectin); format: binding; settings: read-out: AvB3 IC50
T1 construct: Human vitronectin receptor (αvβ3) was purified from human placenta; from tissue; host or cells: human placenta
Experimental: VITRONECTIN ADHESION ASSAY
Assay buffer, OPD substrate tablets, and RIA grade BSA were obtained from Sigma (St. Louis, Mo.). Anti-biotin antibody was obtained from Calbiochem (La Jolla, Calif.). Linbro microtiter plates were obtained from Flow Labs (McLean, Va.). ADP reagent was obtained from Sigma (St. Louis, Mo.).
(§1) Solid Phase Receptor Assays
(§2) The purified human vitronectin receptor (αvβ3) was diluted from stock solutions to 1.0 μg/mL in Tris-buffered saline containing 1.0 mM Ca^++, Mg^++, and Mn^++, pH 7.4 (TBS^+++). The diluted receptor was immediately transferred to Linbro microtiter plates at 100 μL/well (100 ng receptor/well). The plates were sealed and incubated overnight at 4° C. to allow the receptor to bind to the wells. All remaining steps were at room temperature. The assay plates were emptied and 200 μL of 1% RIA grade BSA in TBS^+++(TBS^+++/BSA) were added to block exposed plastic surfaces. Following a 2 hour incubation, the assay plates were washed with TBS^+++ using a 96 well plate washer. Logarithmic serial dilution of the test compound and controls were made starting at a stock concentration of 2 mM and using 2 nM biotinylated vitronectin in TBS^+++/BSA as the diluent. This premixing of labeled ligand with test (or control) ligand, and subsequent transfer of 50 μL aliquots to the assay plate was carried out with a CETUS Propette robot; the final concentration of the labeled ligand was 1 nM and the highest concentration of test compound was 1.0×10^−4 M. The competition occurred for two hours after which all wells were washed with a plate washer as before. Affinity purified horseradish peroxidase labeled goat anti-biotin antibody was diluted 1:3000 in TBS^+++/BSA and 125 μL were added to each well. After 30 minutes, the plates were washed and incubated with OPD/H2O2 substrate in 100 mM/L Citrate buffer, pH 5.0. The plate was read with a microtiter plate reader at a wavelength of 450 nm and when the maximum-binding control wells reached an absorbance of about 1.0, the final A450 were recorded for analysis. The data were analyzed using a macro written for use with the EXCEL™ spreadsheet program. The mean, standard deviation, and % CV were determined for duplicate concentrations. The mean A450 values were normalized to the mean of four maximum-binding controls (no competitor added)(B-MAX). The normalized values were subjected to a four parameter curve fit algorithm [Rodbard et al., Int.

[2] = target: T2, Human fibrinogen receptor (αIIbβ3) (Homo sapiens, UniProt P05106+P08514); assay: Purified IIb/IIIa receptor assay (solid phase receptor assay, competition with biotinylated vitronectin); format: binding; settings: read-out: IIb/IIIa IC50
T2 construct: Human fibrinogen receptor (αIIbβ3) was purified from outdated platelets; from tissue; host or cells: outdated human platelets
Experimental: PURIFIED IIb/IIIa RECEPTOR ASSAY
Human fibrinogen receptor (αIIbβ3) was purified from outdated platelets. […] Biotinylated human vitronectin was prepared by coupling NHS-biotin from Pierce Chemical Company (Rockford, Ill.) to purified vitronectin as previously described. […] Anti-biotin antibody was obtained from Calbiochem (La Jolla, Calif.). Linbro microtiter plates were obtained from Flow Labs (McLean, Va.). ADP reagent was obtained from Sigma (St. Louis, Mo.).
as §1
as §2, with “human fibrinogen” for “human vitronectin”, “receptor (αIIbβ3)” for “receptor (αvβ3)”, “in TBS^+++ (TBS^+++/BSA)” for “in TBS^+++(TBS^+++/BSA)”, “with […]” for “with OPD/H2O2”, “mM/L citrate” for “mM/L Citrate”, “fit algorithm, [Robard” for “fit algorithm [Rodbard”

Row | Compound | IC50 [1] | IC50 [2]
1 | O=C(O)CC(NC(=O)CNC(=O)c1cccc(NC2=NCCCC2)c1)c1cc(Cl)cc(Cl)c1 (racemic) [Example 205, (±)3,5-dichloro-β-[[2-[[[3-[(2,3,4,5-tetrahydropyridin-6-yl)amino]phenyl]carbonyl]amino]acetyl]amino]benzenepropanoic acid, trifluoroacetate salt] | 1.68 nM | 1240 nM
2 | NC(=S)Nc1cccc(C(=O)NCC(=O)NC(CC(=O)O)c2cc(Cl)cc(Cl)c2)c1 (racemic) [Example 206, (±)β-[[2-[[[3-[(aminothioxomethyl)amino]phenyl]carbonyl]amino]acetyl]amino]-3,5-dichlorobenzenepropanoic acid] | 78.5 nM | 22000 nM
3 | N=C(N)Nc1cccc(C(=O)NCC(=O)NC(CC(=O)O)c2ccc(Br)c(Br)c2)c1 (racemic) [Example 207, (±)β-[[2-[[[3-[(aminoiminomethyl)amino]phenyl]carbonyl]amino]acetyl]amino]-3,4-dibromobenzenepropanoic acid, trifluoroacetate salt] | 0.9 nM | 148 nM
4 | N=C(N)Nc1cccc(C(=O)NCC(=O)NC(CC(=O)O)c2cc(Br)cc(Br)c2)c1 (racemic) [Example 210, (±)β-[[2-[[[3-[(aminoiminomethyl)amino]phenyl]carbonyl]amino]acetyl]amino]-3,5-dibromobenzenepropanoic acid, trifluoroacetate salt] | 2.62 nM | 343 nM
5 | O=C(O)CC(NC(=O)CNC(=O)c1cccc(NC2=NCCCN2)c1)c1cc(Br)cc(Br)c1 (racemic) [Example 211, (±)3,5-dibromo-β-[[2-[[[3-[(1,4,5,6-tetrahydropyrimidin-2-yl)amino]phenyl]carbonyl]amino]acetyl]amino]benzenepropanoic acid, trifluoroacetate salt] | 0.47 nM | 607 nM
6 | Cc1cc(Br)cc(C(CC(=O)O)NC(=O)CNC(=O)c2cccc(NC(=N)N)c2)c1 (racemic) [Example 212, (±)β-[[2-[[[3-[(aminoiminomethyl)amino]phenyl]carbonyl]amino]acetyl]amino]-3-bromo-5-methylbenzenepropanoic acid, trifluoroacetate salt] | 1.93 nM | 306 nM
7 | O=C(O)CC(NC(=O)CNC(=O)c1cccc(NC2=NCCCN2)c1)c1cc(Cl)cc(Br)c1 (racemic) [Example 215, (±)3-bromo-5-chloro-β-[[2-[[[3-[(1,4,5,6-tetrahydropyrimidin-2-yl)amino]phenyl]carbonyl]amino]acetyl]amino]-benzenepropanoic acid, trifluoroacetate salt] | 0.41 nM | 656 nM
8 | O=C(CNC(=O)c1cccc(NC2=NCCCN2)c1)NC(CC(=O)OCCOCCOCCOCCO)c1cc(Cl)cc(Cl)c1 (racemic) [Example 217, (±)[2-[2-[2-(2-hydroxyethoxy)ethoxy]ethoxy]ethyl]3,5-dichloro-β-[[2-[[[3-[(1,4,5,6-tetrahydropyrimidin-2-yl)amino]phenyl]carbonyl]amino]acetyl]amino]benzenepropanoate, trifluoroacetate salt] | 74.8 nM | 78900 nM
9 | N=C(N)Nc1cccc(C(=O)NCC(=O)NC(CC(=O)O)c2ccc3c(c2)Cc2ccccc2-3)c1 (racemic) [Example 224, (±)β-[[2-[[[3-[(aminoiminomethyl)amino]phenyl]carbonyl]amino]acetyl]amino]-9H-fluorene-2-propanoic acid, trifluoroacetate salt] | 0.71 nM | 25.9 nM
10 | N=C(N)Nc1cccc(C(=O)NCC(=O)NC(CC(=O)O)C2CCCCC2)c1 (racemic) [Example 229, (±)β-[[2-[[[3-[(aminoiminomethyl)amino]phenyl]carbonyl]amino]acetyl]amino]cyclohexanepropanoic acid, trifluoroacetate salt, monohydrate] | 39.1 nM | 10600 nM
11 | N=C(N)Nc1cccc(C(=O)NCC(=O)NC(CC(=O)O)c2cc(Cl)ccc2O)c1 (racemic) [Example 231, (±)β-[[2-[[[3-[(aminoiminomethyl)amino]phenyl]carbonyl]amino]acetyl]amino]-5-chloro-2-hydroxybenzenepropanoic acid, trifluoroacetate salt, monohydrate] | 2.99 nM | 424 nM

The remaining lines, values ahead:

Row | IC50 [1] | IC50 [2] | Compound
12 | 1.15 nM | 277 nM | N=C(N)Nc1cccc(C(=O)NCC(=O)NC(CC(=O)O)c2cc(F)cc(C(F)(F)F)c2)c1 (racemic) [Example 208, (±)β-[[2-[[[3-[(aminoiminomethyl)amino]phenyl]carbonyl]amino]acetyl]amino]-3-fluoro-5-(trifluoromethyl)benzenepropanoic acid, trifluoroacetate salt]
13 | 0.83 nM | 140 nM | N=C(N)Nc1cccc(C(=O)NCC(=O)NC(CC(=O)O)c2cc(F)cc(Br)c2)c1 (racemic) [Example 209, (±)β-[[2-[[[3-[(aminoiminomethyl)amino]phenyl]carbonyl]amino]acetyl]amino]-3-bromo-5-fluorobenzenepropanoic acid, trifluoroacetate salt]
14 | 2.93 nM | 334 nM | N=C(N)Nc1cc(C(=O)NCC(=O)NC(CC(=O)O)c2cc(Br)cc(Br)c2)cc(C(F)(F)F)c1 (racemic) [Example 213, (±)β-[[2-[[[3-[(aminoiminomethyl)amino]-5-(trifluoromethyl)phenyl]carbonyl]amino]acetyl]amino]-3,5-dibromobenzenepropanoic acid, trifluoroacetate salt]
15 | 2.35 nM | 454 nM | N=C(N)Nc1cccc(C(=O)NCC(=O)NC(CC(=O)O)c2cc(Cl)cc(Br)c2)c1 (racemic) [Example 214, (±)β-[[2-[[[3-[(aminoiminomethyl)amino]phenyl]carbonyl]amino]acetyl]amino]-3-bromo-5-chlorobenzenepropanoic acid, trifluoroacetate salt]
16 | 1 nM | 326 nM | N=C(N)Nc1cc(C(=O)NCC(=O)NC(CC(=O)O)c2cc(Cl)cc(Br)c2)cc(C(F)(F)F)c1 (racemic) [Example 216, (±)β-[[2-[[[3-[(aminoiminomethyl)amino]-5-(trifluoromethyl)phenyl]carbonyl]amino]acetyl]amino]-3-bromo-5-chlorobenzenepropanoic acid, trifluoroacetate salt]
17 | 2.29 nM | 253 nM | N=C(N)Nc1cccc(C(=O)NCC(=O)NC(CC(=O)O)c2cc(Br)cc(I)c2)c1 (racemic) [Example 219, (±)β-[[2-[[[3-[(aminoiminomethyl)amino]phenyl]carbonyl]amino]acetyl]amino]-3-bromo-5-iodobenzenepropanoic acid trifluoroacetate salt]
